# Where a name gives a salt, the structure may show the parent alone. Read-outs that look alike come from different tables or passages of the source.
# Assays:
# R-MuLV = assay: UV-XC plaque assay in SC-1 cells, R-MuLV; type: cell-based, murine leukemia virus
# Procedure: (§1) The compounds were evaluated for antiviral activity against murine leukemia virus (MuLV) strains using the UV-XC plaque assay (Rowe, et al., Virology, 42:1136, 1970).
# (§2) The MuLV strains were grown in feral mouse cells (SC-1) and used for antiviral tests using the UV-XC plaque assay. Briefly, SC-1 cells are grown as monolayers in 4-well tissue culture plates and inoculated with approximately 50-100 plaque forming units of MuLV in 0.5 ml of 5% EMEM containing 20 µg/ml DEAE/Dextran. After 1 hour adsorbtion, the inoculum is removed and 5 ml of 5% EMEM containing three-fold dilutions of the appropriate drug are added. Five days later, the cultures are UV-irradiated with an ultraviolet lamp and rat XC sarcoma cells are added to the cultures. Three-four days after UV-irradiation, the cell cultures are stained with Giemsa stain and the plaques are enumerated. Antiviral activity is expressed in terms of the reduction in the mean number of UX-XC plaques counted in the drug treated, virus-infected cultures compared with mean number of plaques counted in untreated, virus-infected control cultures.
# MuLV = assay: UV-XC plaque assay in SC-1 cells, MuLV; type: cell-based, murine leukemia virus; conditions: Virus MuLV, Cell-line SC-1; read-out: ID50 (the source's name)
# Procedure: as §1, §2
# (§3) This compound was evaluated for anti-retroviral activity by the methods described in Examples 43 and 44. AZT controls were run simultaneously to confirm the validity of the test.
# SC-1 = type: cell-based; conditions: mouse, sc-1 cells
# HIV (LAV strain) = assay: HIV in vitro assay in CEM cells, p-24 gag protein ELISA; type: cell-based
# Procedure: The HIV in vitro assay described as follows was used: The anti-HIV/LAV activity is measured in cultures of CEM-F cells.
# HIV = HIV assay in MT-4 cells; type: cell-based; conditions: Virus HIV, Cell-line MT-4; read-out: ID50 (the source's name)
# Procedure: as §3
# Herpes simplex virus - 2 = assay: Survival of mice inoculated with Herpes simplex virus-2, 21 day protocol; type: in vivo
# Procedure: A preferred example of one of these compounds, known as (S)-HPMPA (Formula 4') was disclosed by DeClercq, et al., in Nature, 1986, 323, pp. 464-467 and earlier by Holy, et al., Nucleic Acids Research, Symposium Series No. 14, 1984, pp. 277-278. Phosphonate compounds which are HPMPA analogs are described in South African Patent 1987/8607. […] In a 21 day protocol 30% of a group of animals treated i.p. with 50 mg/kg/day of (S)-HPMPA survived. [drawing 4]
# [1] = system: Herpes simplex virus-1 (HL-34 strain); assay: HSV-1 systemic infection in mice, survival at 21 days; type: in vivo; conditions: i.p.; for Survival: BID for 5 consecutive days, from 3 hours post-infection, 21 days
# Procedure: Groups of ten mice were inoculated intraperitoneally with from 200 to 600 PFU/0.2ml of Herpes simplex virus-1 (HL-34 strain). Different doses of test compound were administered to separate groups of animals on a BID basis for five consecutive days commencing three hours after inoculation. Treatment was by an intraperitoneal route. The experiment was teminated 21 days post inoculation and the number of survivals in each group was counted. The mean survival time (MST, days) was calculated.
# HSV-1 = assay: Plaque reduction assay in vero cells, HSV-1; type: cell-based, Herpes simplex virus; conditions: Human alphaherpesvirus 1, 48 hour incubation, read-out: ID50 HVS-1
# Procedure: (§4) Herpes simplex virus (HSV) strains were grown and titered at 37°C in vero cells (African Green Monkey Kidney cells) and used for virus work before the tenth passage.
# (§5) Cells were grown and maintained in Earle's Minimum Essential Medium (EMEM), Gibco Laboratories, supplemented with 0.75% sodium bicarbonate, 2mM 1-glutamine, Pen-strep. and 5-10% fetal calf serum.
# (§6) The titer of HSV strains is determined by a plaque titration method (Roizman and Roane, Virology, 115:75-79, 1961). Tissue culture 24-well petri dishes are seeded with cells and used for assays when approximately 75% monolayer. Volumes (0.1ml) of logarithmic dilutions of the virus strain are inoculated onto each of triplicate wells, and absorbed for one hour with intermittent shaking. […] The number of plaques is counted, the triplicate is averaged, and the number of plaque-forming units per ml is calculated.
# (§7) The compounds are tested for activity against the herpes simplex stains using a stock solution of each compound freshly prepared. […] The antiviral efficacy of each compound is determined using the plaque reduction assay described above. […] After a 48-hour incubation period, at 37°C in a 5% CO2 atmosphere, the overlay medium is removed, the cells are stained as described above, and plaques are counted. The counts of triplicate wells are averaged, and the number of plaques in the presence of each drug dilution are calculated. […]
# HSV-2 = assay: Plaque reduction assay in vero cells, HSV-2; type: cell-based, Herpes simplex virus; conditions: Human alphaherpesvirus 2, 48 hour incubation, read-out: ID50 HVS-2
# Procedure: as §4, §5, §6, §7
# [2] = Murine leukemia virus, SC1, UV-XC plaque assay, SC-1 cells, read-out: ID50 R-MuLV
compound,measurement,setting,value
"9-[2,3-Dideoxy-2,3-didehydro-4-β-phosphonomethoxy-β-D-erythrofuranosyl]adenine ammonium salt [Example 50]",IC50,"R-MuLV; Virus MuLV-R, Cell-line SC-1, read-out: ID50 (the source's name)",10 nM
same,IC50,MuLV,< 100 nM
same,CC50,SC-1,> 100000 nM
same,IC50,"HIV (LAV strain); Virus HIV, Cell-line CEM, read-out: ID50 (the source's name)",45000 nM
same,IC50,HIV,1500 nM
Nc1ncnc2c1ncn2C[C@@H](CO)OCP(=O)(O)O [(S)-HPMPA],activity in mice inoculated with Herpes simplex virus - 2 (in words),Herpes simplex virus - 2; in applicant's hands,only slightly active
same,survived,"Herpes simplex virus - 2; mice inoculated with Herpes simplex virus - 2, i.p. 50 mg/kg/day, 21 day protocol",30%
"Nc1nc2c(ncn2COCCO)c(=O)[nH]1 [ACV, Acyclovir, reference compound]",Survival,[1]; Dose 100 mg/kg/d,7/10
same,Survival,[1]; Dose 200 mg/kg/d,6/7
same,IC50,HSV-1,0.5 µg/mL
same,IC50,HSV-2,0.5 µg/mL
"Cc1cn([C@H]2C[C@H](N=[N+]=[N-])[C@@H](CO)O2)c(=O)[nH]c1=O [AZT, reference compound]",IC50,R-MuLV; [2],0.05 µg/mL
same,IC50,"HIV (LAV strain); Human immunodeficiency virus 1, CCRF-CEM, 192 h, read-out: ID50 HIV",0.1 µg/mL
"Nc1nc2c(ncn2COCOCP(=O)(O)O)c(=O)[nH]1 [Compound 8, 9-[3-(Phosphonomethoxy)methoxymethyl]guanine disodium salt]",Survival,[1]; Dose 10 mg/kg/d,3/10
same,Survival,[1]; Dose 100 mg/kg/d,9/10
same,Survival,[1]; Dose 300 mg/kg/d,10/10
same,activity compared with ACV in vivo (in words),[1]; HSV-1 systemic infection in mice,equally as active as ACV
same,IC50,HSV-1,2.6 µg/mL
same,IC50,HSV-2,11 µg/mL
"Cc1cn(C2C=CC(OCP(=O)(O)O)O2)c(=O)[nH]c1=O [Compound 25, 1-[2,3-Dideoxy-2,3-didehydro-4-phosphonomethoxy-beta-D-erythrofuranosyl]thymine disodium salt]",IC50,R-MuLV; [2],0.3 µg/mL
same,IC50,"HIV (LAV strain); Human immunodeficiency virus 1, CCRF-CEM, 192 h, CEM-F cells, 8 days, p-24 gag protein ELISA, read-out: ID50 HIV",1.8 µg/mL

# From patent EP0398231B1, “Nucleoside analogs” (INSTITUTE OF ORGANIC CHEMISTRY AND BIOCHEMISTRY OF THE …, priority 1989, dated 1990)
